Data taken from patent US4402944A, “Polysulfonate Sennoside A & B compounds and method of use” (American Cyanamid Company, priority 1982, dated 1983).
Structures can show the parent of a compound that is named as a salt.

How the values were obtained:
activated human C1 = assay: Test Code 026 (C1 inhibitor); format: biochemical; details: serial two fold dilution assay; higher well number indicates higher activity; protection of human C2 from C1 and C4
Protocol: (§1) An active inhibitor protects C2 from C1 and C4; (ii) Test Code 035 (C3-C9 inhibitor)-This test determines the ability of the late components of human complement (C3-C9) to lyse EAC 142 in the presence of appropriate dilutions of the test compound. An active inhibitor protects EAC 142 from lysis by human C3-C9; and (iii) Cap 50 Test-Here, appropriate amounts of the test compound are added to a pool of guinea pig serum in vitro, after which the undiluted serum capillary tube assay of U.S. Pat. No. 3,876,376 is run. The concentration of compound inhibiting 50% is reported.

[1] = system: late components of human complement (C3-C9); assay: Test Code 035 (C3-C9 inhibitor); format: biochemical; details: serial two fold dilution assay; higher well number indicates higher activity; protection of EAC 142 from lysis
Protocol: as §1

| Structure (SMILES) | 026 (C1 inhibitor), activity in wells (activated human C1) | 035 (C3-C9 inhibitor), activity in wells [1] |
| --- | --- | --- |
| O=C(O)c1cc(OS(=O)(=O)O)c2c(c1)[C@H]([C@H]1c3cccc(O[C@@H]4O[C@H](COS(=O)(=O)O)[C@@H](OS(=O)(=O)O)[C@H](OS(=O)(=O)O)[C@H]4OS(=O)(=O)O)c3C(=O)c3c(OS(=O)(=O)O)cc(C(=O)O)cc31)c1cccc(O[C@@H]3O[C@H](COS(=O)(=O)O)[C@@H](OS(=O)(=O)O)[C@H](OS(=O)(=O)O)[C@H]3OS(=O)(=O)O)c1C2=O (relative stereo) [(R*,S*)-5,5'-Bis-(β-D-glucopyranosyloxy)-9,9',10,10'-tetrahydro-4,4'-dihydroxy-10,10'-dioxo-[9,9'-bianthracene]-2,2'-dicarboxylic acid, decakis (H-sulfate), decasodium salt] | 7 wells | 1 wells |
| O=C(O)c1cc(OS(=O)(=O)O)c2c(c1)C(C1c3cccc(OC4OC(COS(=O)(=O)O)C(OS(=O)(=O)O)C(OS(=O)(=O)O)C4OS(=O)(=O)O)c3C(=O)c3c(OS(=O)(=O)O)cc(C(=O)O)cc31)c1cccc(OC3OC(COS(=O)(=O)O)C(OS(=O)(=O)O)C(OS(=O)(=O)O)C3OS(=O)(=O)O)c1C2=O [(R*,R*)-5,5'-Bis-(β-D-glucopyranosyloxy)-9,9',10,10'-tetrahydro-4,4'-dihydroxy-10,10'-dioxo-[9,9'-bianthracene]-2,2'-dicarboxylic acid, decakis (H-sulfate), decasodium salt] | 8 wells | 2 wells |
